# How the values were obtained:
# [1] = test system: ovarian cancer cell lines; test: NK cell activation against ovarian cancer lines vs K562 / Raji; format: cell-based
# Experimental: ADCC was measured in a flow cytometry assay by evaluating degranulation via CD107a (lysosomal-associated membrane protein LAMP-1) and intracellular IFNγ production. Upon thawing, normal donor and patient-derived PBMCs or ascites cells were rested overnight (37° C., 5% CO2) in RPMI 1640 media supplemented with 10% fetal calf serum (RPMI-10). The next morning, they were suspended with tumor-target cells or media after washing twice with RPMI-10. Cells were then incubated with TriKEs or controls for 10 min at 37° C. Fluorescein isothiocyate (FITC)-conjugated anti-human CD107a monoclonal antibody (BD Biosciences, San Jose, CA, USA) was then added. […] Samples were washed and evaluated in an LSRII flow cytometer (BD Biosciences, San Jose, CA, USA).
# The ability of cam1615B7-H3 TriKE to mediate NK cell activity against ovarian cancer cells was evaluated. […] In order to determine if the individual components of the TriKE could induce NK cell activity on their own, the individual cam16 VHH, IL-15, or anti-B7-H3 scFv components were incubated with PBMCs and OVCAR8 cells and activity was determined. […] NK cell activity, from normal donor PBMCs and ascites from the peritoneal cavity of ovarian cancer patients at the time of surgery, was assessed against MA-148 cells, another high-grade serous ovarian adenocarcinoma cell line (FIGS. 29A-29B and 30G-30H). […]
# [2] = test system: OVCAR5 ovarian cancer cells; test: NK cell CD107a / IFNγ flow cytometry against OVCAR5; format: cell-based, human; settings: 30 nM, E:T 2:1, 4 hrs; vs no treatment and rhIL-15 alone
# Experimental: Healthy donor or ovarian cancer PBMC cells were incubated with ovarian tumor targets at 2:1 E:T ratio for 4 hrs with 30 nM TriKE or control condition. FIG. 30A is a graph illustrating pooled proportion of NK cells from healthy donors expressing CD107a+ (degranulation) against OVCAR8 targets (N=8). FIG. 30B is a graph illustrating pooled proportion of NK cells from healthy donors expressing IFNγ cytokine production against OVCAR8 targets (N=8). FIG. 30C is a graph illustrating pooled proportion of NK cells from healthy donors expressing CD107a+ (degranulation) against OVCAR3 targets (N=4). […] FIG. 30I is a graph illustrating that tumor killing was evaluated using IncuCyte imaging assay. […] The percentage of Live (Nuclight Red+Caspase 3/7−) tumor cells was quantified over a 48-h period and normalized to tumor alone. Readings were obtained every 15 min (representative of four separate experiments). * p<0.05, ** p<0.01, *** p<0.001, and **** p<0.0001.
# ADCC was measured in a flow cytometry assay by evaluating degranulation via CD107a (lysosomal-associated membrane protein LAMP-1) and intracellular IFNγ production. […] Samples were washed and evaluated in an LSRII flow cytometer (BD Biosciences, San Jose, CA, USA).
# The ability of cam1615B7-H3 TriKE to mediate NK cell activity against ovarian cancer cells was evaluated. […]
substance,measurement,setting,value
"cam1615B7-H3: second-generation TriKE: humanized camelid anti-CD16 VHH, human wild-type IL-15, anti-B7-H3 mAb 376.96 scFv; SEQ ID NO:1",IFNγ production against ovarian cancer vs K562 natural cytotoxicity signal,[1]; K562 in the absence of TriKE,stronger IFNγ production
same,fold NK cell activation (PBMC+Tumor+TriKE divided by PBMC+TriKE alone),[1]; all ovarian cancer cell lines vs Raji,higher than activation by the B7-H3-negative Raji line
same,NK cell degranulation against OVCAR5,[2],robust
same,NK cell intracellular IFNγ production against OVCAR5,[2],robust
